Assays:
[1] = test system: Staphylococcus aureus ATCC 29213; assay: Antagonization assay of antibacterial activity against S. aureus; type: cell-based; details: for Effect of pre-incubation with D-Ala (Diacetyl-Lys-D-Ala-D-Ala) on killing of S. aureus / Effect of pre-incubation with D-Lac (diacetyl-Lys-D-ala-D-Lac) on killing of S. aureus: 1:200 molar ratio, 30 min
Procedure: Antagonization of the antibacterial activity of defensins against Staphylococcus aureus ATCC 29213 was carried out in a 96-well turbidimetric assay essentially as described previously (Erickson et al.). Defensins (50 μM final concentration) were pre-incubated with the following compounds for 30 min at RT: 1) 3-Lipid II at 1:1, 1:2.5 and 1:5 defensin:Lipid II molar ratios; or; 2) DiAcetyl-Lys-D-Alanine-D-Alanine and DiAcetyl-Lys-D-Alanine-D-Lac at 1:200 molar ratios. Additionally, vancomycin (500 μM) was pre-incubated separately with D-Ala and D-Lac at a 1:200 molar ratio. Following incubation, solutions were diluted two-fold in ten steps and bacteria were added. Bacterial cells were exposed to HNP1 or vancomycin for 30 min and to HD-5 for 60 min in all studies. Defensin activity was neutralized by the addition of Mueller Hinton broth. Bacterial growth was monitored for 12 hours and data were analyzed as described (Erickson et al.).
Next, the inventors examined whether the antibacterial activity of HNP-1 could be antagonized by soluble Lipid II as a measure for functional interaction. HNP-1 (50 μM) was pre-incubated with 3-Lipid II at varying molar ratios and killing of S. aureus was determined using the vCC protocol (Erickson et al.) (FIG. 3). […] Survival curves of S. aureus ATCC 29213 exposed to HNP1 (at concentrations varying two-fold from 50 to 1.25 μM). Defensin peptide was pre-incubated with 3-Lipid II at varying molar ratios for 30 min prior to addition of bacteria. Bacteria were subsequently exposed to HNP-1 for 30 min. Each curve is the mean of two separate experiments (±S.D.). Points scored as zero survival could not be plotted.
The D-Ala-D-Ala motif in the pentapeptide is the predominant binding site for vancomycin, a drug of “last resort” for many multi-drug resistant Gram-positive infections. To examine if the interaction of HNP-1 with Lipid II overlaps with the vancomycin binding site, antagonization assays were performed. Diacetyl-Lys-D-Ala-D-Ala (D-Ala) was used as […] and the non-specific peptide diacetyl-Lys-D-ala-D-Lac (D-Lac) as a control. Both vancomycin and HNP-1 were pre-incubated at a 1:200 molar ratio with both compounds for 30 min, similar to experiments with soluble Lipid II (FIG. 3). Subsequently, the inventors determined any antagonizing effects on the killing of S. aureus (FIG. 4). […] In particular, survival curves of S. aureus ATCC 29213 exposed to HNP1 (upper panel) at concentrations varying two-fold from 50 to 1.25 μM or to vancomycin (lower panel) at concentrations varying two-fold from 2 to 0.0125 μM. HNP-1 and vancomycin were pre-incubated with D-ala or D-lac at a 1:200 molar ratio for 30 min prior to addition of bacteria. Bacteria were subsequently exposed to HNP-1 or vancomycin for 30 min. Each curve is the mean of two separate experiments (±S.D.). Points scored as zero survival could not be plotted.

[2] = test system: S. aureus ATCC 29213; assay: Murine peritoneal sepsis model; type: in vivo, C57BL/6J mice; details: mouse, in vivo
Procedure: Adult C57BL/6J mice (˜18 grams, 8-10 weeks old) were used for all experiments. Mice were obtained from the Jackson Laboratory (Bar Harbour, Me., USA) and housed in the IHV SPC animal core facility. Mice were fed standard chow (Harlan Laboratories) and water ad libitum. To assess the protective potency of defensin mimetic BAS00127538, groups of 5 mice were inoculated intraperitoneally ˜10^7 CFU/mL of S. aureus ATCC 29213 in 500 μL saline solution/25% DMSO plus 4.5% (w/v) porcine gastric mucin (Sigma Chemical Co., St Louis, Mo.). Infected animals (n=5) were subsequently treated by intra-peritoneal injection 1 and 4 hours post-infection with 2.5 mg/kg of compound in 100 μL sterile saline solution plus 25% DMSO (V/V), vancomycin/lysostaphin (5 mg/kg, saline solution/25% DMSO) or vehicle (saline solution/25% DMSO) as positive and negative controls respectively. Animals were closely observed during a period of 24 hours and mice that show signs of severe sepsis were humanely euthanized. Blood samples were collected by retro-orbital puncture at the indicated intervals post-infection using lithium-heparin polystyrene tubes to prevent coagulation. Spleens were harvested aseptically, weighed and homogenized in 500 μl of sterile saline solution using an IKA T10 basic disperser (IKA, Wilmington N.C.). Whole blood samples and spleen homogenates were serially diluted and plated onto LB agar plates. Bacterial counts were determined following 24 h incubation at 37° C. and expressed as CFU per milliliter for blood and CFU per gram for spleen.
Next, a murine model for sepsis was established to evaluate the efficacy of the lead defensin mimetics as antibiotic agents in vivo. […] Mice (n=5) were inoculated intraperitoneally with S. aureus 29213 and treated 1 h and 4 h post-infection with compound BAS00127538 at 2.5 mg/kg intraperitoneally Animals were monitored for survival and blood and spleen samples were collected. Bacterial counts were determined and compared to control treatment with vancomycin/lysostaphin as measures of efficacy (FIG. 6).

[3] = test system: Escherichia coli ATCC 25922; assay: 96-well turbidimetric antibacterial killing assay, E. coli; type: cell-based; details: E. coli ATCC 25922, 120 min exposure
Procedure: The antibacterial activity of defensin mimetics against Staphylococcus aureus ATCC 29213 and Escherichia coli 25922 was carried out in a 96-well turbidimetric assay essentially as described (Ericksen, B., Wu, Z., Lu, W., and Lehrer, R. I. (2005) Antimicrob Agents Chemother 49, 269-275) with the following modifications: compounds were exposed for 30 min to […] prior to addition of […] in 10 mM phosphate buffer containing 5% DMSO. Bacterial growth was monitored for 12 hours and data were analyzed as described (Ericksen, et al). Determination of MICs was performed by Micromyx, LLC (Kalamazoo, Mich.) according to CLSI standards (CLSI. (2009) Methods for Dilution Antimicrobial Susceptibility Tests for Bacteria That Grow Aerobically; Approved Standard—Eighth Edition.)
The inventors have previously reported on the antibacterial activity of HNP1 and all of its structurally uncompromised single alanine mutants against S. aureus (Wei, G., Pazgier, M., de Leeuw, E., Rajabi, M., Li, J., Zou, G., Jung, G., Yuan, W., Lu, W. Y., Lehrer, R. I., and Lu, W. J Biol Chem 285, 16275-16285). […] If these residues are indeed important for Lipid II binding, one would expect that replacement by alanine will not affect killing of Gram-negative bacteria. […] In particular, FIG. 12 depicts killing of E. coli by HNP-1 Lipid II single alanine mutants. Survival curves of E. coli ATCC 25922 exposed to HNP-1 or HNP-1 single alanine mutants at concentrations varying two-fold from […]. Bacteria were exposed to defensin peptides for 120 min. Each curve is the mean of two separate experiments (±S.D.). Points scored as zero survival could not be plotted.

[4] = Surface Plasmon Resonance binding to immobilized 3-Lipid II (BIAcore); details: SPR, 10 μM, room temperature, 40 RUs 3-Lipid II
Procedure: Short-chain water-soluble Lipid II containing a lipid tail of three isoprene units was generated and purified essentially as described (Breukink, E., van Heusden, H. E., Vollmerhaus, P. J., Swiezewska, E., Brunner, L., Walker, S., Heck, A. J., and de Kruijff, B. (2003) J Biol Chem 278, 19898-19903). Typically, M. flavus vesicles (120 μmol lipid-Pi) were incubated together with 500 μmol UDP-GlcNAc, 500 μmol UDP-MurNAC-pentapeptide and 400 μmol farnesyl phosphate (3-P) in 100 mM Tris-HCl pH 8.0, 5 mM MgCl2. The incubation lasted two hours at room temperature for 3-P. The synthesis of 3-Lipid II was followed using RP-8 reversed phase TLC (Merck) developed in 75% methanol. For purification, the membranes were removed by centrifugation at 40,000×g and the supernatant was collected and loaded on a C18 HPLC column and eluted with a linear gradient from 50 mM ammonium bicarbonate to 100% methanol in 30 minutes. Farnesyl-Lipid II (3-Lipid II) eluted at approximately 60% methanol. Its identity was confirmed by mass spectroscopy.
Surface Plasmon Resonance binding experiments were carried out on a BIAcore T100 system (BIAcore Inc., Piscataway, N.Y.) at 25° C. The assay buffer was 10 mM HEPES, 150 mM NaCl, 0.05% surfactant P20, pH 7.4 (±3 mM EDTA) supplemented with 10% DMSO. […] For initial determination of binding, defensin mimetics were introduced into the flow-cells (30 μl/min) in the running buffer at 10 μM. Resonance signals were corrected for nonspecific binding by subtracting the background of the control flow-cell. After each analysis, the sensor chip surfaces were regenerated with 50 mM NaOH for 30 s at a flow rate 100 μl/min, and equilibrated with the buffer prior to next injection. For binding kinetics studies, binding isotherms were analyzed with manufacturer-supplied software for BIAcore T100.

[5] = test system: Staphylococcus aureus ATCC 29213; details: previously reported (Wei et al., J Biol Chem 285); cited from earlier work

Molecule | Efficacy in vivo in a murine model for sepsis [2] | Binding of HNP-1 single alanine mutants to Lipid II compared to wild-type HNP-1 [4] | other results
CN[C@H](CC(C)C)C(=O)N[C@H]1C(=O)N[C@@H](CC(N)=O)C(=O)N[C@H]2C(=O)N[C@H]3C(=O)N[C@H](C(=O)N[C@H](C(=O)O)c4cc(O)cc(O)c4-c4cc3ccc4O)[C@H](O)c3ccc(c(Cl)c3)Oc3cc2cc(c3O[C@@H]2O[C@H](CO)[C@@H](O)[C@H](O)[C@H]2O[C@H]2C[C@](C)(N)[C@H](O)[C@H](C)O2)Oc2ccc(cc2Cl)[C@H]1O [Vancomycin, vancomycin] |  |  | Effect of pre-incubation with D-Ala (Diacetyl-Lys-D-Ala-D-Ala) on killing of S. aureus [1]: specifically inhibited the killing; Effect of pre-incubation with D-Lac (diacetyl-Lys-D-ala-D-Lac) on killing of S. aureus [1]: not altered; Killing of S. aureus ([1]; without antagonist, 30 min exposure): very effectively
CN(C)c1ccc(/C=C/c2cc(C(C)(C)C)[o+]c(C(C)(C)C)c2)cc1 [Compound 1493-0289, 2,6-di-tert-butyl-4-[(E)-2-[4-(dimethylamino)phenyl]ethenyl]-1$1^4-pyran-1-ylium] | proven effective |  | 
Oc1ccccc1Oc1c(F)c(F)c(-c2c(F)c(F)c(Oc3ccccc3O)c(F)c2F)c(F)c1F [Compound 1611-0203, 2-{2,3,5,6-tetrafluoro-4-[2,3,5,6-tetrafluoro-4-(2-hydroxyphenoxy)phenyl]phenoxy}phenol] | proven effective |  | 
CCCCC[n+]1c(/C=C2\Sc3cc(NC(C)=O)ccc3N2CC)ccc2ccccc21 [Compound 4890-0291, N-[(2Z)-3-ethyl-2-[(1-pentylquinolin-1-ium-2-yl)methylidene]-1,3-benzothiazol-6-yl]acetamide] | proven effective |  | 
c1ccc(-c2nc(N(c3ccccc3)c3ccccc3)s[n+]2-c2ccccc2)cc1 [Compound 1492-0330, 5-(diphenylamino)-2,3-diphenyl-1,2$1^5,4-thiadiazol-2-ylium] | proven effective |  | 
Arg15: HNP-1 single alanine mutant, Arg15 replaced by alanine |  | significant reduction of binding | Bactericidal activity against E. coli relative to wild-type HNP-1 [3]: exception; Killing of S. aureus by HNP-1 single alanine mutants [5]: severely compromised
Gly23: HNP-1 single alanine mutant, Gly23 replaced by alanine |  | did not affect binding | 
CC[n+]1c(/C=C2C=C(/C=C/N(C)c3ccccc3)CC(C)(C)C/2)sc2ccccc21 [Compound 4090-1978, 2-{[(1E)-5,5-dimethyl-3-[(E)-2-[methyl(phenyl)amino]ethenyl]cyclohex-2-en-1-ylidene]methyl}-3-ethyl-1,3-benzothiazol-3-ium] | proven effective |  | 
HNP-1: α-defensin Human Neutrophil Peptide 1, chemically synthesized, wild-type |  |  | Bactericidal activity after pre-incubation with 3-Lipid II ([1]; 1:1 molar ratio, 30 min pre-incubation, S. aureus): reduced by one order of magnitude; Effect of pre-incubation with D-Ala (Diacetyl-Lys-D-Ala-D-Ala) on killing of S. aureus [1]: not competitively inhibited; Effect of pre-incubation with D-Lac (diacetyl-Lys-D-ala-D-Lac) on killing of S. aureus [1]: not competitively inhibited
Ile10: HNP-1 single alanine mutant, Ile10 replaced by alanine |  | did not affect binding | 
CC[n+]1c(/C=C2C=C(/C=C/C(C)=C\N(C)C)CC(C)(C)C/2)sc2ccccc21 [Compound 4090-1979, 2-{[(1E)-3-[(1E,3Z)-4-(dimethylamino)-3-methylbuta-1,3-dien-1-yl]-5,5-dimethylcyclohex-2-en-1-ylidene]methyl}-3-ethyl-1,3-benzothiazol-3-ium] | proven effective |  | 
Arg5: HNP-1 single alanine mutant, Arg5 replaced by alanine |  | did not affect binding | 
HNP-1 R24A mutant: HNP-1 single alanine mutant, Arg24 replaced by alanine |  | maintained significant binding | 
